Laboratory results: patent US20250113826A1, “AN AGROCHEMICAL COMBINATION” (UPL LIMITED, priority 2021, published 2025)

Key:
Format in all cases: in vivo
weedy Glycine max = assay: Greenhouse post-emergence herbicidal efficacy on weedy Glycine max
Protocol: (§1) Evaluation of Post-Emergence Herbicidal Activity of Combinations Under Field Conditions
(§2) Methodology: Greenhouse trials were carried out to evaluate the efficacy of the combination of L-glufosinate and the other herbicides on weeds such as Glycine max, Spermacoce verticilata, Eleusine indica, Brachiaria decumbens. The soil used was sandy clay loam—Sand: 68.0%; Silt: 8.0%; Clay: 24.0%. All treatments were conducted in 4 replications per treatment with a spray volume of […].
(§3) The expected efficacy of a combination of L-glufosinate and the other herbicides was calculated using the well-established Colby method. Any difference between the observed and “expected” efficacy could be attributed to synergy between the two compounds.
(§4) In the Colby method, the expected (or predicted) response of a combination of herbicides is calculated by taking the product of the observed response for each individual component of the combination when applied alone, divided by 100, and subtracting this value from the sum of the observed response for each component when applied alone. An unexpected enhancement in efficacy of the combination is then determined by comparing the observed response of the combination to the expected (or predicted) response as calculated from the observed response of each individual component alone. If the observed response of the combination is greater than the expected (or predicted) response, or stated conversely, if the difference between the observed and expected response is greater than zero, then the combination is said to be synergistic or unexpectedly effective (Colby, S. R., Weeds, 1967(15), p. 20-22). The Colby method requires only a single dose of each herbicide applied alone and the mixture of both doses. The formula used to calculate the expected efficacy (EE) which was compared with the observed efficacy (OE) to determine the efficacy of the present invention is explained hereinbelow:
(§5) The expected efficacy for a combination of two active ingredients is as follows:
(§6) The expected efficacy for a combination of three active ingredients is as follows:
(§7) Where, • A=Observed efficacy of active ingredient A at the same concentration as used in the mixture. • B=Observed efficacy of the active ingredient B at the same concentration as used in the mixture. • C=Observed efficacy of the active ingredient C at the same concentration as used in the mixture.

Eleusine indica = assay: Greenhouse post-emergence herbicidal efficacy on Eleusine indica
Protocol: as §1, §2, §3, §4, §5, §6, §7

Brachiaria decumbens = assay: Greenhouse post-emergence herbicidal efficacy on Brachiaria decumbens
Protocol: as §1, §2, §3, §4, §5, §6, §7

Spermacoce latifolia = assay: Greenhouse post-emergence herbicidal efficacy on Spermacoce latifolia; conditions: L-glufosinate 150, imazethapyr 75, carfentrazone 7.5 g a.i./h
Protocol: as §1, §2, §3, §4, §5, §6, §7

Amaranthus viridus = assay: Greenhouse post-emergence herbicidal efficacy on Amaranthus viridus; conditions: Table 11, 3 DAA, L-glufosinate 150, imazapic and imazapyr 31.5 + 10.5 g a.i./h
Protocol: as §1, §2, §3
In the Colby method, the expected (or predicted) response of a combination of herbicides is calculated by taking the product of the observed response for each individual component of the combination when applied alone, divided by 100, and subtracting this value from the sum of the observed response for each component when applied alone. An unexpected enhancement in efficacy of the combination is then determined by comparing the observed response of the combination to the expected (or predicted) response as calculated from the observed response of each individual component alone. […]

Borreria verticillata = assay: Greenhouse post-emergence herbicidal efficacy on Borreria verticillata; conditions: L-glufosinate 150, imazapic and imazapyr 31.5 + 10.5 g a.i./h
Protocol: as §1, §2, §3, §4, §5, §6, §7

[1] = Table 9, 21 DAA, L-glufosinate 150, saflufenacil 30, 2,4 D 228 g a.i./h
[2] = Table 9, 28 DAA, L-glufosinate 150, saflufenacil 30, 2,4 D 228 g a.i./h
[3] = Table 9, 35 DAA, L-glufosinate 150, saflufenacil 30, 2,4 D 228 g a.i./h
[4] = Table 4, 3 DAA, L-glufosinate 150, imazethapyr 75, carfentrazone 7.5 g a.i./h
[5] = Table 4, 7 DAA, L-glufosinate 150, imazethapyr 75, carfentrazone 7.5 g a.i./h
[6] = Table 4, 14 DAA, L-glufosinate 150, imazethapyr 75, carfentrazone 7.5 g a.i./h
[7] = Table 4, 21 DAA, L-glufosinate 150, imazethapyr 75, carfentrazone 7.5 g a.i./h
[8] = Table 4, 28 DAA, L-glufosinate 150, imazethapyr 75, carfentrazone 7.5 g a.i./h
[9] = Table 4, 35 DAA, L-glufosinate 150, imazethapyr 75, carfentrazone 7.5 g a.i./h
[10] = Table 3, 14 DAA, L-glufosinate 150, imazethapyr 75, carfentrazone 7.5 g a.i./h
[11] = Table 3, 21 DAA, L-glufosinate 150, imazethapyr 75, carfentrazone 7.5 g a.i./h
[12] = Table 3, 28 DAA, L-glufosinate 150, imazethapyr 75, carfentrazone 7.5 g a.i./h
[13] = Table 3, 35 DAA, L-glufosinate 150, imazethapyr 75, carfentrazone 7.5 g a.i./h
[14] = Table 6, 7 DAA, L-glufosinate 150, imazethapyr 75, carfentrazone 7.5 g a.i./h
[15] = Table 6, 14 DAA, L-glufosinate 150, imazethapyr 75, carfentrazone 7.5 g a.i./h
[16] = Table 6, 21 DAA, L-glufosinate 150, imazethapyr 75, carfentrazone 7.5 g a.i./h
[17] = Table 6, 28 DAA, L-glufosinate 150, imazethapyr 75, carfentrazone 7.5 g a.i./h
[18] = Table 6, 35 DAA, L-glufosinate 150, imazethapyr 75, carfentrazone 7.5 g a.i./h
[19] = Table 7, 7 DAA, L-glufosinate 150, saflufenacil 30, triclopyr 228 g a.i./h
[20] = Table 8, 7 DAA (head; title says 3 days), L-glufosinate 150, saflufenacil 30, triclopyr 228 g a.i./h

Compound | Control % (weedy Glycine max; [1]) | Control % (weedy Glycine max; [2]) | Control % (weedy Glycine max; [3]) | Control % (Eleusine indica; [4]) | Control % (Eleusine indica; [5]) | Control % (Eleusine indica; [6]) | Control % (Eleusine indica; [7]) | Control % (Eleusine indica; [8]) | Control % (Eleusine indica; [9]) | Control % (weedy Glycine max; [10]) | Control % (weedy Glycine max; [11]) | Control % (weedy Glycine max; [12]) | Control % (weedy Glycine max; [13]) | Control % (Brachiaria decumbens; [14]) | Control % (Brachiaria decumbens; [15]) | Control % (Brachiaria decumbens; [16]) | Control % (Brachiaria decumbens; [17]) | Control % (Brachiaria decumbens; [18]) | Control % (Spermacoce latifolia; Table 5, 7 DAA) | Control % (Spermacoce latifolia; Table 5, 14 DAA) | other results
O=C(O)COc1ccc(Cl)cc1Cl [2,4 D, 2,4-D] | 49.3% | 43.8% | 41% |  |  |  |  |  |  |  |  |  |  |  |  |  |  |  |  |  | 
Cc1nn(-c2cc(CC(Cl)C(=O)O)c(Cl)cc2F)c(=O)n1C(F)F (stereo not shown) [Carfentrazone, carfentrazone] |  |  |  | 8.7% | 14% | 12.3% | 11% | 7.7% | 0% | 50.3% | 44.3% | 44.3% | 39.3% | 14% | 16.7% | 15% | 5% | 0% | 58.3% | 64.3% | Control % (Spermacoce latifolia; Table 5, 21 DAA): 64.3%; Control % (Spermacoce latifolia; Table 5, 28 DAA): 64.3%; Control % (Spermacoce latifolia; Table 5, 35 DAA): 63.3%
CCc1cnc(C2=NC(C)(C(C)C)C(=O)N2)c(C(=O)O)c1 (stereo not shown) [Imazethapyr, imazethapyr] |  |  |  | 3.7% | 8.3% | 12% | 12.7% | 12.7% | 10% | 10% | 20.0% | 20.0% | 15.0% | 10% | 10% | 15% | 10% | 5% | 13.3% | 30% | Control % (Spermacoce latifolia; Table 5, 21 DAA): 36.7%; Control % (Spermacoce latifolia; Table 5, 28 DAA): 30%; Control % (Spermacoce latifolia; Table 5, 35 DAA): 26.7%
CP(=O)(O)CC[C@H](N)C(=O)O [L-glufosinate, (S)-2-amino-4-(hydroxy(methyl)phosphonyl)butanoic acid] | 57.5% | 50.6% | 47.5% | 15% | 43.3% | 41.3% | 37.3% | 28.3% | 25.3% | 60% | 63.3% | 63.3% | 52.7% | 46% | 54.3% | 53.3% | 48.3% | 42% | 35% | 56.7% | Control % (Eleusine indica; Table 12, 3 DAA, L-glufosinate 150, imazapic and imazapyr 31.5 + 10.5 g a.i./h): 40%; Control % (Eleusine indica; Table 12, 7 DAA, L-glufosinate 150, imazapic and imazapyr 31.5 + 10.5 g a.i./h): 50%; Control % (Eleusine indica; Table 12, 14 DAA, L-glufosinate 150, imazapic and imazapyr 31.5 + 10.5 g a.i./h): 40%; Control % (Amaranthus viridus): 50%; Control % (weedy Glycine max; [19]): 71.9%; Control % (Brachiaria decumbens; [20]): 66.2%; Control % (Borreria verticillata; Table 10, 3 DAA): 50%; Control % (Borreria verticillata; Table 10, 7 DAA): 80%; Control % (Borreria verticillata; Table 10, 14 DAA): 95%; Control % (Borreria verticillata; Table 10, 21 DAA): 90%; Control % (Borreria verticillata; Table 10, 28 DAA): 90%; Control % (Borreria verticillata; Table 10, 35 DAA): 85%; Control % (Spermacoce latifolia; Table 5, 21 DAA): 56.7%; Control % (Spermacoce latifolia; Table 5, 28 DAA): 58.3%; Control % (Spermacoce latifolia; Table 5, 35 DAA): 58.3%
CC(C)N(C)S(=O)(=O)NC(=O)c1cc(-n2c(=O)cc(C(F)(F)F)n(C)c2=O)c(F)cc1Cl [Saflufenacil, saflufenacil] | 63.2% | 52.5% | 50.7% |  |  |  |  |  |  |  |  |  |  |  |  |  |  |  |  |  | Control % (weedy Glycine max; [19]): 75.4%; Control % (Brachiaria decumbens; [20]): 30%
O=C(O)COc1nc(Cl)c(Cl)cc1Cl [Triclopyr, triclopyr] |  |  |  |  |  |  |  |  |  |  |  |  |  |  |  |  |  |  |  |  | Control % (weedy Glycine max; [19]): 67.9%; Control % (Brachiaria decumbens; [20]): 0%
